The target in test [1] is human ERK-2 (Mitogen Activated Kinase 1) (Homo sapiens (Human), UniProt P28482). In words: ERK-2 Enzymatic Assay. Type of test: biochemical. The note with it: ERK-2 enzyme, 25 μM ATP; single assay or mean of multiple assays; read-out: Biological Example 1 IC50.
Test [2] relates to PMA-stimulated P90RSK(Ser380) phosphorylation in HepG2 cells. Kind of test: Cellular P90RSK(Ser380) Phosphorylation Assay. The following applies: Homo sapiens, 1.5 hours compound incubation, PMA 100 ng/mL, normalized to GAPDH, single assay or mean of multiple assays, read-out: Biological Example 2 IC50. Type of test: cell-based. On the procedure: Inhibition of PMA-stimulated P90RSK(Ser380) phosphorylation was determined by the following in vitro cellular mechanistic assay, which comprises incubating cells with a compound for 1.5 hours and quantifying fluorescent pP90RSK(Ser380) signal on fixed cells and normalizing to GAPDH signal.
HepG2 cells were obtained from ATCC (Manassas, Va.) and grown in DMEM supplemented with 10% fetal bovine serum. Cells were plated in 96-well plates at 35,000 cells/well and allowed to attach overnight at 37° C./5% CO2. Diluted compounds were then added at a final concentration of 0.5% DMSO. After 1.5 hours compound incubation, cells were stimulated with the addition of phorbol 12-myristate 13-acetate (“PMA”) at a final concentration of 100 ng/mL; the PMA stimulation was a 30-minute incubation at 37° C./5% CO2. After the 30-minute PMA stimulation, cells were washed with phosphate buffered saline (“PBS”) and fixed in 3.7% formaldehyde in PBS at room temperature for 15-20 minutes. This was followed by another wash in PBS and then permeabilization in 100% MeOH at room temperature for 10-15 minutes. Following the permeabilization incubation, cells were washed in PBS/0.05% Tween-20, followed by a block in Odyssey blocking buffer (LI-COR Biosciences) for at least 1 hour. Antibodies to phosphorylated P90RSK(Ser380) (Cell Signaling #9335, rabbit monoclonal) and GAPDH (Fitzgerald 10R-G109a, mouse monoclonal) were added to the cells and incubated overnight at 4° C. pP90RSK(Ser380) antibody was used at a 1:250 dilution; GAPDH was used at a 1:10,000 dilution. After washing with PBS/0.05% Tween-20, the cells were incubated with fluorescently-labeled secondary antibodies (Anti-rabbit-Alexa Flour680, Invitrogen Cat#A21109; Anti-mouse-IRDye800CW, Rockland Inc. Cat#610-131-121) for 1 hour. Both secondary antibodies were used at a 1:1000 dilution. Cells were then washed and analyzed for fluorescence at both wavelengths using the Odyssey Infrared Imaging System (LI-COR Biosciences). Phosphorylated P90RSK(Ser380) signal was normalized to GAPDH signal.

human ERK-2 (Mitogen Activated Kinase 1), sequence (P28482 8-360): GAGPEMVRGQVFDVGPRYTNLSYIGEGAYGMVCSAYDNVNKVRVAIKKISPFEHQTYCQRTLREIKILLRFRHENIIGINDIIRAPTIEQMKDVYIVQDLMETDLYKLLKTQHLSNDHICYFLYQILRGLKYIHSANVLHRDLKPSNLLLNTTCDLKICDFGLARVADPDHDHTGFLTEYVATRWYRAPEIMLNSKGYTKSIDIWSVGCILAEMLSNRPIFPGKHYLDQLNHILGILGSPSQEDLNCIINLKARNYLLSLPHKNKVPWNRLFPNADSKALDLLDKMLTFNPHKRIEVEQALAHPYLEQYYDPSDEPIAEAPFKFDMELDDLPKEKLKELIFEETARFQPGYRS

As usually defined, the IC50 is the concentration that inhibits the measured activity by half. In the case of `Cn1nccc1Nc1cc(-c2ccn3c(Cc4ccc(F)cc4F)nnc3c2)ccn1` [Example 84, 4-(3-(2,4-difluorobenzyl)-[1,2,4]triazolo[4,3-a]pyridin-7-yl)-N-(1-methyl-1H-pyrazol-5-yl)pyridin-2-amine], the IC50 in test [1] came out at 3.2 nM; in test [2], 15.7 nM.

For the compound `c1cc(-c2ccn3c(C4CCCNC4)nnc3c2)nc(NC2CCOCC2)n1` (stereo not drawn) [Example 131, 4-(3-(piperidin-3-yl)-[1,2,4]triazolo[4,3-a]pyridin-7-yl)-N-(tetrahydro-2H-pyran-4-yl)pyrimidin-2-amine], the IC50 in test [1] is 224 nM; in test [2], 2380 nM.

For the compound `Cn1nccc1Nc1cc(-c2ccn3c([C@H](O)Cc4ccccc4)nnc3c2)ccn1` [Example 121, (R)-1-(7-(2-((1-methyl-1H-pyrazol-5-yl)amino)pyridin-4-yl)-[1,2,4]triazolo[4,3-a]pyridin-3-yl)-2-phenylethanol], the IC50 in test [1] came to 0.9 nM; in test [2] it was 34.7 nM.

For `Cn1nccc1Nc1nccc(-c2ccn3c(Cc4cccc(F)c4F)nnc3c2)n1` [Example 51, 4-(3-(2,3-difluorobenzyl)-[1,2,4]triazolo[4,3-a]pyridin-7-yl)-N-(1-methyl-1H-pyrazol-5-yl)pyrimidin-2-amine], the IC50 in test [1] stood at 2.6 nM; in test [2], 8.9 nM.

For `CCOc1ccc(Cc2nnc3cc(-c4ccnc(Nc5ccnn5C)n4)ccn23)cn1` [Example 493, 4-(3-((6-ethoxypyridin-3-yl)methyl)-[1,2,4]triazolo[4,3-a]pyridin-7-yl)-N-(1-methyl-1H-pyrazol-5-yl)pyrimidin-2-amine], the IC50 in test [1] amounted to 0.8 nM; in test [2], 117 nM.

Regarding `Cn1nccc1Nc1nccc(-c2ccn3c(CC(C)(O)C4CC4)nnc3c2)n1` (stereo not drawn) [Example 563, 2-cyclopropyl-1-(7-(2-((1-methyl-1H-pyrazol-5-yl)amino)pyrimidin-4-yl)-[1,2,4]triazolo[4,3-a]pyridin-3-yl)propan-2-ol], the IC50 in test [1] was 661 nM; in test [2] it was more than 5000 nM.

In the case of `Cn1nccc1Nc1cc(-c2ccn3c(CC(C)(C)C)nnc3c2)ccn1` [Example 279, N-(1-methyl-1H-pyrazol-5-yl)-4-(3-neopentyl-[1,2,4]triazolo[4,3-a]pyridin-7-yl)pyridin-2-amine], the results for the IC50 in test [1] and in test [2] were 0.6 nM and 51.9 nM, respectively.

As to `COC(Cc1nnc2cc(-c3ccnc(Nc4ccnn4C)n3)ccn12)C(F)(F)F` (stereo not drawn) [Example 108, N-(1-methyl-1H-pyrazol-5-yl)-4-(3-(3,3,3-trifluoro-2-methoxypropyl)-[1,2,4]triazolo[4,3-a]pyridin-7-yl)pyrimidin-2-amine], the IC50 in test [1] was found to be 3.4 nM; in test [2] it was 38.2 nM.

On to `Cn1nccc1Nc1nccc(-c2ccn3c(CC4CC5CCC4C5)nnc3c2)n1` (stereo not drawn) [Example 163, 4-(3-(bicyclo[2.2.1]heptan-2-ylmethyl)-[1,2,4]triazolo[4,3-a]pyridin-7-yl)-N-(1-methyl-1H-pyrazol-5-yl)pyrimidin-2-amine], for which the figures for the IC50 in test [1] and in test [2] were 2.4 nM and 20.7 nM, respectively.

Turning to `COc1ccc(Cc2nnc3cc(-c4ccnc(Nc5ccnn5C)n4)ccn23)cc1` [Example 49, 4-(3-(4-methoxybenzyl)-[1,2,4]triazolo[4,3-a]pyridin-7-yl)-N-(1-methyl-1H-pyrazol-5-yl)pyrimidin-2-amine], the results for the IC50 in test [1] and in test [2] were 0.8 nM and 6.6 nM, respectively.

As to `Fc1ccccc1Cc1nnc2cc(-c3ccnc(NC4CCOCC4)n3)ccn12` [Example 398, 4-(3-(2-fluorobenzyl)-[1,2,4]triazolo[4,3-a]pyridin-7-yl)-N-(tetrahydro-2H-pyran-4-yl)pyrimidin-2-amine], the IC50 in test [1] worked out at 3 nM; in test [2] it was 15.5 nM.

For `CC(C)Cc1nnc2cc(-c3ccnc(Nc4ccnn4C)n3)ccn12` [Example 169, 4-(3-isobutyl-[1,2,4]triazolo[4,3-a]pyridin-7-yl)-N-(1-methyl-1H-pyrazol-5-yl)pyrimidin-2-amine], the IC50 turned out to be 2.7 nM in test [1] and 30 nM in test [2].

For the compound `CN(C)C(c1ccc(F)cc1)c1nnc2cc(-c3ccnc(Nc4ccnn4C)n3)ccn12` (stereo not drawn) [Example 377, 4-(3-((dimethylamino)(4-fluorophenyl)methyl)-[1,2,4]triazolo[4,3-a]pyridin-7-yl)-N-(1-methyl-1H-pyrazol-5-yl)pyrimidin-2-amine], the values for the IC50 in test [1] and in test [2] were 5.4 nM and 82.9 nM, respectively.

Turning to `Cn1nccc1Nc1nccc(-c2ccn3c(CC4CCC(F)(F)CC4)nnc3c2)n1` [Example 317, 4-(3-((4,4-difluorocyclohexyl)methyl)-[1,2,4]triazolo[4,3-a]pyridin-7-yl)-N-(1-methyl-1H-pyrazol-5-yl)pyrimidin-2-amine], the IC50 in test [1] is 0.9 nM; in test [2], 35.8 nM.

`Cn1nccc1Nc1cc(-c2ccn3c(CC4CC4)nnc3c2)ccn1` [Example 295, 4-(3-(cyclopropylmethyl)-[1,2,4]triazolo[4,3-a]pyridin-7-yl)-N-(1-methyl-1H-pyrazol-5-yl)pyridin-2-amine]: the results for the IC50 in test [1] and in test [2] were 0.4 nM and 117 nM, respectively.

Consider `Cn1nccc1Nc1cc(-c2ccn3c(CC4(C(F)(F)F)CC4)nnc3c2)ccn1` [Example 396, N-(1-methyl-1H-pyrazol-5-yl)-4-(3-((1-(trifluoromethyl)cyclopropyl)methyl)-[1,2,4]triazolo[4,3-a]pyridin-7-yl)pyridin-2-amine], for which the IC50 in test [1] is 3.3 nM; in test [2], 35.4 nM.

On to `Cn1nccc1Nc1nccc(-c2ccn3c([C@H](O)c4cccc(Cl)c4)nnc3c2)n1` [Example 116, (R)-(3-chlorophenyl)(7-(2-((1-methyl-1H-pyrazol-5-yl)amino)pyrimidin-4-yl)-[1,2,4]triazolo[4,3-a]pyridin-3-yl)methanol], for which the IC50 stood at 3.3 nM in test [1] and 19.3 nM in test [2].

For `Cn1nccc1Nc1nccc(-c2ccn3c(CC(C)(C)C)nnc3c2)n1` [Example 150, N-(1-methyl-1H-pyrazol-5-yl)-4-(3-neopentyl-[1,2,4]triazolo[4,3-a]pyridin-7-yl)pyrimidin-2-amine], the IC50 is 2.8 nM in test [1] and 39.2 nM in test [2].

Consider `CO[C@@H](c1ccccc1)c1nnc2cc(-c3ccnc(NC4CCOCC4)n3)ccn12` [Example 195, (S)-4-(3-(methoxy(phenyl)methyl)-[1,2,4]triazolo[4,3-a]pyridin-7-yl)-N-(tetrahydro-2H-pyran-4-yl)pyrimidin-2-amine], for which the IC50 in test [1] amounted to 24.9 nM; in test [2] it was 39.7 nM.

Turning to `CC[C@H](C)Cc1nnc2cc(-c3ccnc(Nc4ccnn4C)n3)ccn12` [Example 115, (S)—N-(1-methyl-1H-pyrazol-5-yl)-4-(3-(2-methylbutyl)-[1,2,4]triazolo[4,3-a]pyridin-7-yl)pyrimidin-2-amine], the figures for the IC50 in test [1] and in test [2] were 2.8 nM and 8.3 nM, respectively.

With `Cn1nccc1Nc1nccc(-c2ccn3c(CSC4CCCC4)nnc3c2)n1` [Example 307, 4-(3-((cyclopentylthio)methyl)-[1,2,4]triazolo[4,3-a]pyridin-7-yl)-N-(1-methyl-1H-pyrazol-5-yl)pyrimidin-2-amine], the IC50 in test [1] was 3.5 nM; in test [2] it was 32.2 nM.

Values taken from patent publication US9670208B2, “Serine/threonine kinase inhibitors” (Array BioPharma Inc., priority 2013, dated 2017).
